Test results published in patent publication US20120034613A1, “Apparatus and Method for Testing Relationships Between Gene Expression and Physical Appearance of Skin” (NSE Products, Inc., priority 2010, published 2012).

System: EpidermFT™ Skin Model (EFT-400) full thickness skin cultures
Experiment: Affymetrix GeneChip HG U133 Plus 2.0 microarray global gene expression, agent-exposed vs untreated skin cultures
Assay type: cell-based, human
[1] = probe 239272_at, Table 3 skin structure
[2] = probe 1552319_a_at, 0.5%, 24 hr
[3] = probe 1552578_a_at, 0.5%, 24 hr
[4] = probe 1554252_a_at, 0.5%, 24 hr
[5] = probe 1554741_s_at, 0.5%, 24 hr
[6] = probe 1554921_a_at, 0.5%, 24 hr
[7] = probe 1554980_a_at, 0.5%, 24 hr
[8] = probe 1554997_a_at, 0.5%, 24 hr
[9] = probe 1555103_s_at, 0.5%, 24 hr
[10] = probe 1555416_a_at, 0.5%, 24 hr
[11] = probe 1556410_a_at, 0.5%, 24 hr
[12] = probe 1558143_a_at, 0.5%, 24 hr
[13] = tissue exposed to salicin, skin structure gene, Table 4
[14] = tissue exposed to salicin, skin structure gene, Table 4, direction down
[15] = tissue exposed to salicin, skin structure gene, Table 4, direction up

Compound: OCc1ccccc1O[C@@H]1O[C@H](CO)[C@@H](O)[C@H](O)[C@H]1O [Salicin, 2-(Hydroxymethyl)phenyl β-D-glucospyranoside]
- Direction NFKBIZ (probe 223217_s_at, 0.5%, 24 hr): up
- Fold change NFKBIZ (probe 223217_s_at, 0.5%, 24 hr): 2.35
- Direction SLC25A19 (probe 223222_at, 0.5%, 24 hr): up
- Fold change SLC25A19 (probe 223222_at, 0.5%, 24 hr): 2.243
- Direction HAS3 (probe 223541_at, 0.5%, 24 hr): down
- Fold change HAS3 (probe 223541_at, 0.5%, 24 hr): 3.713
- Direction TRPC4 (probe 224220_x_at, 0.5%, 24 hr): up
- Fold change TRPC4 (probe 224220_x_at, 0.5%, 24 hr): 2.708
- Direction CNFN (probe 224329_s_at, 0.5%, 24 hr): down
- Fold change CNFN (probe 224329_s_at, 0.5%, 24 hr): 5.442
- Direction H2AFJ (probe 225245_x_at, 0.5%, 24 hr): down
- Fold change H2AFJ (probe 225245_x_at, 0.5%, 24 hr): 2.328
- Direction ABHD2 (probe 225337_at, 0.5%, 24 hr): up
- Fold change ABHD2 (probe 225337_at, 0.5%, 24 hr): 2.704
- Direction NRP2 (probe 225566_at, 0.5%, 24 hr): up
- Fold change NRP2 (probe 225566_at, 0.5%, 24 hr): 3.198
- Direction FGF11 (probe 227271_at, 0.5%, 24 hr): down
- Fold change FGF11 (probe 227271_at, 0.5%, 24 hr): 2.672
- Direction HS3ST3B1 (probe 227361_at, 0.5%, 24 hr): up
- Fold change HS3ST3B1 (probe 227361_at, 0.5%, 24 hr): 3.41
- Direction SERPINE2 (probe 227487_s_at, 0.5%, 24 hr): up
- Fold change SERPINE2 (probe 227487_s_at, 0.5%, 24 hr): 3.148
- Direction ASAM (probe 228082_at, 0.5%, 24 hr): up
- Fold change ASAM (probe 228082_at, 0.5%, 24 hr): 2.108
- Direction IL20RB (probe 228575_at, 0.5%, 24 hr): down
- Fold change IL20RB (probe 228575_at, 0.5%, 24 hr): 10.04
- Direction SCN9A (probe 229199_at, 0.5%, 24 hr): up
- Fold change SCN9A (probe 229199_at, 0.5%, 24 hr): 3.818
- Direction CREB5 (probe 229228_at, 0.5%, 24 hr): up
- Fold change CREB5 (probe 229228_at, 0.5%, 24 hr): 9.768
- Direction TNS4 (probe 230398_at, 0.5%, 24 hr): down
- Fold change TNS4 (probe 230398_at, 0.5%, 24 hr): 2.738
- Direction SLC20A1 (probe 230494_at, 0.5%, 24 hr): up
- Fold change SLC20A1 (probe 230494_at, 0.5%, 24 hr): 2.526
- Direction KLF15 (probe 231015_at, 0.5%, 24 hr): up
- Fold change KLF15 (probe 231015_at, 0.5%, 24 hr): 2.338
- Direction KGFLP2 (probe 231031_at, 0.5%, 24 hr): up
- Fold change KGFLP2 (probe 231031_at, 0.5%, 24 hr): 3.34
- Direction EPPK1 (probe 232165_at, 0.5%, 24 hr): down
- Fold change EPPK1 (probe 232165_at, 0.5%, 24 hr): 12.4
- Direction ELOVL3 (probe 234513_at, 0.5%, 24 hr): down
- Fold change ELOVL3 (probe 234513_at, 0.5%, 24 hr): 2.048
- Direction KRTCAP3 (probe 235148_at, 0.5%, 24 hr): down
- Fold change KRTCAP3 (probe 235148_at, 0.5%, 24 hr): 2.158
- Direction GSTA4 (probe 235405_at, 0.5%, 24 hr): down
- Fold change GSTA4 (probe 235405_at, 0.5%, 24 hr): 3.3
- Direction SGPP2 (probe 238567_at, 0.5%, 24 hr): down
- Fold change SGPP2 (probe 238567_at, 0.5%, 24 hr): 5.641
- Direction MMP28 [1]: down
- Fold change MMP28 [1]: 4.074
- Direction MMP28 (probe 239273_s_at, 0.5%, 24 hr): down
- Fold change MMP28 (probe 239273_s_at, 0.5%, 24 hr): 2.678
- Direction DSEL (probe 244852_at, 0.5%, 24 hr): up
- Fold change DSEL (probe 244852_at, 0.5%, 24 hr): 2.251
- Direction KLK8 [2]: down
- Fold change KLK8 [2]: 4.867
- Direction MYO3B [3]: up
- Fold change MYO3B [3]: 2.338
- Direction SNX21 (probe 1553960_at, 0.5%, 24 hr): down
- Fold change SNX21 (probe 1553960_at, 0.5%, 24 hr): 2.031
- Direction LASS3 [4]: down
- Fold change LASS3 [4]: 15.34
- Direction FGF7 /// KGFLP1 /// KGFLP2 [5]: up
- Fold change FGF7 /// KGFLP1 /// KGFLP2 [5]: 2.506
- Direction SCEL [6]: down
- Fold change SCEL [6]: 6.1
- Direction ATF3 [7]: up
- Fold change ATF3 [7]: 2.623
- Direction PTGS2 [8]: up
- Fold change PTGS2 [8]: 6.813
- Direction FGF7 [9]: up
- Fold change FGF7 [9]: 2.35
- Direction ALOX15B [10]: down
- Fold change ALOX15B [10]: 2.215
- Direction KRTAP19-1 [11]: up
- Fold change KRTAP19-1 [11]: 24.65
- Direction BCL2L11 [12]: up
- Fold change BCL2L11 [12]: 2.347
- Direction LCE1E (probe 1559224_at, 0.5%, 24 hr): down
- Fold change LCE1E (probe 1559224_at, 0.5%, 24 hr): 4.811
- Direction LCE1B (probe 1560531_at, 0.5%, 24 hr): down
- Fold change LCE1B (probe 1560531_at, 0.5%, 24 hr): 71.235
- Direction ITGB1 (probe 1561042_at, 0.5%, 24 hr): up
- Fold change ITGB1 (probe 1561042_at, 0.5%, 24 hr): 2.151
- Direction FLG2 (probe 1569410_at, 0.5%, 24 hr): down
- Fold change FLG2 (probe 1569410_at, 0.5%, 24 hr): 45.91
- Direction COL4A1 (211981_at) [13]: up
- Direction FBN2 (203184_at) [13]: up
- Direction FN1 (214702_at) [13]: up
- Direction FNDC3A (215910_s_at) [13]: up
- Direction FOXO1 (202724_s_at) [13]: up
- Direction IGFBP5 (211958_at) [13]: up
- Direction ITGB1 (1561042_at) [13]: up
- Direction KRT5 (201820_at) [13]: down
- Direction KRT9 (208188_at) [13]: down
- Direction MMP28 (239272_at) [13]: down
- Direction SOD2 (215078_at) [13]: up
- Direction TIMP3 (201150_s_at) [13]: up
- Direction TNC (216005_at) [13]: up
- Direction TNFAIP3 (202643_s_at) [13]: up
- Fold change KRT5 (201820_at) [14]: 3.737
- Fold change KRT9 (208188_at) [14]: 3.737
- Fold change MMP28 (239272_at) [14]: 4.074
- Fold change COL4A1 (211981_at) [15]: 2.121
- Fold change FBN2 (203184_at) [15]: 2.028
- Fold change FN1 (214702_at) [15]: 2.71
- Fold change FNDC3A (215910_s_at) [15]: 3.663
- Fold change FOXO1 (202724_s_at) [15]: 2.098
- Fold change IGFBP5 (211958_at) [15]: 2.712
- Fold change ITGB1 (1561042_at) [15]: 2.151
- Fold change SOD2 (215078_at) [15]: 5.712
- Fold change TIMP3 (201150_s_at) [15]: 2.058
- Fold change TNC (216005_at) [15]: 2.719
- Fold change TNFAIP3 (202643_s_at) [15]: 6.915
